# Values joined by “and” are separate entries in the source; they are usually repeats but may differ in a detail not shown here. Equal values may be shown once. Read-outs that look alike come from different tables or passages of the source. Marks after values point to notes of the source that are not given here.
# Tests used:
# B16 Melanoma = type: in vivo, B6D2F1 mice
# Description: Body weight was determined at 0, 2, 4, 6, 8, 10 and 12 days. […] Injections were started on day 1. […] Body weight was determined at 0, 2, 4, 6, 8, 10 and 12 days. […] Injections were started on day 1.
# P388/Adr = assay: cells; type: cell-based, murine; settings: Table 1C
# Summary of the method: (§1)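 Suspension leukemic cells (CCRF-CEM, P388 and drug-resistant sublines kept under the selecting agent) were seeded at 5×10^4 cells/mL in RPMI-1640 with 10% FBS at 37 °C. After 72 h drug exposure in duplicate, PMS-XTT was added for 4 h. Absorbance was read at 450 and 630 nm.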
# CCRF-CEM/Taxol® = assay: cells; type: cell-based, human
# Summary of the method: as §1
# CCRF-CEM/VBL100 = assay: cells; type: cell-based, human; settings: for IC50: read-out: IC50
# Summary of the method: as §1
# CCRF-CEM/VM1 = assay: cells; type: cell-based, human; settings: for IC50: read-out: IC50
# Summary of the method: as §1
# [1] = tested on: human ovarian adenocarcinoma SK-OV-3
# [2] = tested on: A549 Human Lung Carcinoma; assay: A549 xenograft; type: in vivo, nude mice; settings: for Average Tumor Size, Day 11: control 96; for Average Tumor Size, Day 15: control 306; for Average Tumor Size, Day 17: control 553; for Average Body Weight, Day 7: initial weight
# [3] = tested on: PC-3 Human Prostate Carcinoma; assay: PC-3 xenograft; type: in vivo, nude mice; settings: for Therapeutic effect Rank Order: PC-3; for Average Body Weight, Day 5: initial weight
# [4] = tested on: CCRF-CEM human T-cell acute lymphoblastic leukemia cell line; assay: XTT cytotoxicity (cell growth inhibition), CCRF-CEM
# Summary of the method: as §1
# [5] = 35 mg/kg i.p. Q2Dx5 from day 9, day 15
# [6] = 35 mg/kg i.p. Q2Dx5 from day 9, day 17
# [7] = 35 mg/kg i.p. Q2Dx5 from day 9, day 19
# [8] = dEpo B 15 mg/kg i.v. Q2Dx5 from day 9
# [9] = dEpo B 15 mg/kg i.v. Q2Dx5 from day 9, day 15
# [10] = dEpo B 15 mg/kg i.v. Q2Dx5 from day 9, day 17
# [11] = dEpo B 15 mg/kg i.v. Q2Dx5 from day 9, day 19
# [12] = A549 Lung, dEpoB 40 mg/kg Q2D x 3, Taxol 15 mg/kg Q2D x 3
# [13] = Q2D x 3, 6 hr i.v. infusion: dEpoB 40, Taxol 24 mg/kg
# [14] = Q2D x 3: dEpoB 30 mg/kg 18 hr i.v. infusion, Taxol 15 mg/kg 6 hr infusion, VBL 2 and VP-16 25 mg/kg i.v. inj
# [15] = dEpoB 50 mg/kg Q2D x 3, 6 hr i.v. infusion
# [16] = 6 hr i.v. infusion: dEpoB 40, Taxol 24 mg/kg
# [17] = PC-3 Prostate, dEpoB 40 mg/kg Q2D x 3, Taxol 15 mg/kg Q2D x 3
# [18] = dEpoB 30 mg/kg 18 hr i.v. infusion, Taxol 16 mg/kg 6 hr infusion, VBL 2 and VP-16 25 mg/kg i.v. inj
# [19] = dEpoB 50 mg/kg, 6 hr i.v. infusion
smiles,measurement,setting,value
"C/C1=C/C[C@@H](/C(C)=C/c2csc(C)n2)OC(=O)C[C@H](O)C(C)(C)C(=O)[C@H](C)[C@@H](O)[C@@H](C)CCC1 [Desoxyepothilone B, desoxyepothilone B]",Average Tumor Volume (T/C),"B16 Melanoma; 20 mg/kg QD1-4,7-8, day 11",0.33
same,mice died,B16 Melanoma; 20 mg/kg QDx6 from day 1 (FIG. 44),0 of 8
same,folds of resistance (IC50 ratio vs parent cell line),P388/Adr; P388/Adr vs P388/O,(0.62x)
same,IC50,"P388/Adr; XTT, 72 h, read-out: IC50",4.2 nM
same,(C)/(A) IC50 ratio,CCRF-CEM/Taxol®,1.7
same,IC50,"CCRF-CEM/Taxol®; Table 1A, XTT, 72 h, read-out: IC50",16.2 nM
same,fold resistance (cross-resistance) vs parent CCRF-CEM,"CCRF-CEM/VBL100; CCRF-CEM/VBL100 MDR cells, listed as dEpoB",1.8 fold
same,IC50,"CCRF-CEM/VBL100; Table 1, XTT",17 nM
same,(B)/(A) IC50 ratio,"CCRF-CEM/VBL100; Table 1A, CCRF-CEM/VBL100 vs CCRF-CEM",1.8
same,IC50,"CCRF-CEM/VBL100; Table 1A, XTT, 72 h",17 nM
same,IC50,"CCRF-CEM/VBL100; Table 6, single determinations",17 nM
same,IC50,"CCRF-CEM/VBL100; Table 7, CEM/VBL",16.9 nM
same,IC50,CCRF-CEM/VBL100,17 nM
same,IC50,"CCRF-CEM/VM1; Table 1, XTT",14 nM
same,(D)/(A) IC50 ratio,"CCRF-CEM/VM1; Table 1A, CCRF-CEM/VM1 vs CCRF-CEM",1.5
same,IC50,"CCRF-CEM/VM1; Table 1A, XTT, 72 h",14 nM
same,IC50,"CCRF-CEM/VM1; Table 6, single determinations",14 nM
same,Toxicity Death,[1]; 35 mg/kg i.p. Q2Dx5 from day 9,0/6
same,Tumor Disapp.,[1]; 35 mg/kg i.p. Q2Dx5 from day 9,0/6
same,Average Body Weight Change,"[1]; 35 mg/kg i.p. Q2Dx5 from day 9, day 13",-1.7 g
same,Average Body Weight Change,[1]; [5],-2.1 g
same,Average Tumor Size (T/C),[1]; [5],0.57
same,Average Body Weight Change,[1]; [6],-2.1 g
same,Average Tumor Size (T/C),[1]; [6],0.33
same,Average Body Weight Change,[1]; [7],-2.4 g
same,Average Tumor Size (T/C),[1]; [7],0.35
same,Average Tumor Size (T/C),"[1]; 35 mg/kg i.p. Q2Dx5 from day 9, day 21",0.28
same,Toxicity Death,[1]; [8],4/6^b
same,Tumor Disapp.,[1]; [8],0/6
same,Average Body Weight Change,"[1]; dEpo B 15 mg/kg i.v. Q2Dx5 from day 9, day 13",0 g
same,Average Body Weight Change,[1]; [9],-0.6 g
same,Average Tumor Size (T/C),[1]; [9],0.86
same,Average Body Weight Change,[1]; [10],-1.1 g
same,Average Tumor Size (T/C),[1]; [10],0.56
same,Average Body Weight Change,[1]; [11],-2.6 g
same,Average Tumor Size (T/C),[1]; [11],0.50
same,Average Tumor Size (T/C),"[1]; dEpo B 15 mg/kg i.v. Q2Dx5 from day 9, day 21",0.44
same,tumor size treated/control,"[1]; dEpoB 35 mg/kg i.p. Q2Dx5, day 21",0.28
same,Lowest Average Tumor Size (T/C),"[1]; mouse, in vivo",0.17 T/C
same,Therapeutic Effects dEpoB vs Taxol,"[1]; mouse, in vivo",<<
same,Therapeutic effect Rank Order,"[1]; mouse, in vivo",Taxol ® ≈ dEpoB
same,Tumor Disappearance,"[1]; mouse, in vivo",0
same,Therapeutic effect Rank Order,"[1]; mouse, in vivo, iv",Taxol ® > dEpoB
same,Therapeutic effect Rank Order,"[2]; A549, i.v. infusion","Taxol ®, dEpoB, VBL > VP-16"
same,Lowest Average Tumor Size (T/C),[2]; [12],0.01 T/C
same,Tumor Disappearance,[2]; [12],1/3
same,Therapeutic Effects dEpoB vs Taxol,"[2]; A549 Lung, dEpoB 40 mg/kg Q2D x 3 vs Taxol 15 mg/kg Q2D x 3",≅
same,"Average Body Weight (change), Day 11",[2]; [13],-1.6 g
same,"Average Body Weight (change), Day 13",[2]; [13],-3.2 g
same,"Average Body Weight (change), Day 15",[2]; [13],-2.4 g
same,Tumor Disappearance,[2]; [13],1/3
same,"Average Tumor Size, Day 11",[2]; [13],31 mm^3
same,"Average Tumor Size, Day 15",[2]; [13],4 mm^3
same,"Average Tumor Size, Day 17",[2]; [13],4 mm^3
same,"Average Body Weight (change), Day 11",[2]; [14],-2.0 g
same,"Average Body Weight (change), Day 13",[2]; [14],-5.8 g
same,"Average Body Weight (change), Day 15",[2]; [14],-5.6 g
same,Tumor Disappearance,[2]; [14],1/3
same,"Average Tumor Size, Day 11",[2]; [14],17 mm^3
same,"Average Tumor Size, Day 15",[2]; [14],26 mm^3
same,"Average Tumor Size, Day 17",[2]; [14],21 mm^3
same,"Average Body Weight (change), Day 11",[2]; [15],-2.0 g
same,"Average Body Weight (change), Day 13",[2]; [15],-3.2 g
same,"Average Body Weight (change), Day 15",[2]; [15],-2.5 g
same,Tumor Disappearance,[2]; [15],1/2
same,"Average Tumor Size, Day 11",[2]; [15],33 mm^3
same,"Average Tumor Size, Day 13","[2]; dEpoB 50 mg/kg Q2D x 3, 6 hr i.v. infusion, control 128",19 mm^3
same,"Average Tumor Size, Day 15",[2]; [15],6 mm^3
same,"Average Tumor Size, Day 17",[2]; [15],6 mm^3
same,"Average Body Weight, Day 7",[2]; [13],27.8 g
same,"Average Body Weight, Day 7",[2]; [14],29.3 g
same,"Average Body Weight, Day 7",[2]; [15],27.1 g
same,"Average Tumor Size, Day 13","[2]; mouse, in vivo",21 mm^3 and 19 mm^3
same,"Average Body Weight (change), Day 9",[3]; [16],-1.7 g
same,"Average Body Weight (change), Day 11",[3]; [16],-3.4 g
same,"Average Body Weight (change), Day 13",[3]; [16],-2.7 g
same,"Average Tumor Size (TC), Day 9",[3]; [16],0.40 TC
same,"Average Tumor Size (TC), Day 11",[3]; [16],0.19 TC
same,"Average Tumor Size (TC), Day 13",[3]; [16],0.12 TC
same,Tumor Disappearance,[3]; [16],0/3
same,Therapeutic effect Rank Order,[3]; i.v. infusion (order wraps over rows r24-r25),dEpoB >> VP-16
same,Therapeutic effect Rank Order,[3]; i.v./i.p. (order wraps over rows r11-r12),Taxol ® > dEpoB >>
same,Lowest Average Tumor Size (T/C),[3]; [17],0.12 T/C
same,Tumor Disappearance,[3]; [17],0
same,Therapeutic Effects dEpoB vs Taxol,"[3]; PC-3 Prostate, dEpoB 40 mg/kg Q2D x 3 vs Taxol 15 mg/kg Q2D x 3",<<
same,"Average Body Weight (change), Day 9",[3]; [18],-2.2 g
same,"Average Body Weight (change), Day 11",[3]; [18],-5.9 g
same,"Average Body Weight (change), Day 13",[3]; [18],-5.8 g
same,"Average Tumor Size (TC), Day 9",[3]; [18],0.17 TC
same,"Average Tumor Size (TC), Day 11",[3]; [18],0.06 TC
same,"Average Tumor Size (TC), Day 13",[3]; [18],0.06 TC
same,Tumor Disappearance,[3]; [18],0/3
same,"Average Body Weight (change), Day 9",[3]; [19],-2.1 g
same,"Average Body Weight (change), Day 11",[3]; [19],-3.0 g
same,"Average Body Weight (change), Day 13",[3]; [19],-2.6 g
same,"Average Tumor Size (TC), Day 9",[3]; [19],0.37 TC
same,"Average Tumor Size (TC), Day 11",[3]; [19],0.13 TC
same,"Average Tumor Size (TC), Day 13",[3]; [19],0.03 TC
same,Tumor Disappearance,[3]; [19],0/3
same,"Average Body Weight, Day 5",[3]; [16],28.3 g
same,"Average Body Weight, Day 5",[3]; [18],29.4 g
same,"Average Body Weight, Day 5",[3]; [19],28.1 g
same,IC50,[4],9.5 nM
same,IC50,"[4]; Table 1, XTT",9 nM
same,IC50,"[4]; Table 1A, XTT, 72 h",9.5 nM
same,IC50,"[4]; Table 6, single determinations",9.5 nM
same,IC50,"[4]; Table 7, CEM",9.5 nM

# Reference: US6603023B2 (priority 1996, dated 2003)
